Reference: patent US6500425B1, “Inhibiting plant pathogens with an antagonistic microorganism(s)” (The United States of America as represented by the …, priority 1988, dated 2002)

How the values were obtained:
Assay type in all cases: in vivo
[1] = tested on: Botrytis cinerea; assay: Botrytis cinerea infection of wounded apples, inorganic salts with or without NRRL Y-18314 (Example XI); conditions: for Percent Infection, Salt Alone (No NRRL Y-18314): salt 2 grams/100 ml (FeSO4 5 millimolar), 10 days after inoculation, mean (standard error)
Description: Golden delicious apples were artificially wounded to a depth of 3 mm using a needle. Each of a first portion of the apples was treated with 50 microliter aliquots of an aqueous solution consisting of NRRL Y-18314 in sterile distilled water at a concentration of 10^7 CEU/ml with each of the salts listed in Table VIII at a concentration of 2 grams/100 ml (with the exception of FeSO4 which was utilized at a 5 millimolar concentration). A second portion of the apples was treated with a 50 microliter aqueous solution of the salts listed in Table VIII at a concentration of 2 grams/100 ml (with the exception of FeSO4 which was utilized in a concentration of 5 millimolar). Also a control was run using only sterile distilled water. Two hours after application of the above solutions, each of the apples was challenged with 20 microliters of a 10^5 spore/ml suspension of Botrytis cinerea. The average percent fruit infection of four trials (8 to 10 replicates per trial) was measured 10 days after inoculation with the Botrytis cinerea.
Values in parentheses are standard errors of the mean.

[2] = tested on: Penicillium expansum; assay: Penicillium expansum lesion diameter on wounded apples (Example XIII); conditions: CaCl2 2 gram/100 ml alone (yeast 0), seven days
Description: Golden delicious apples were artificially wounded in accordance with Example XI.
The entries of Table X are the average of 5 replicates per treatment.

[3] = tested on: Penicillium digitatum; assay: Penicillium digitatum fruit rot of wounded grapefruit, CaCl2 and yeast concentrations (Example XIV)
Description: Grapefruit was wounded as in Example I. The wounded grapefruit were then treated with 50 microliter aliquots of the constituents identified in Tables XI and XII in sterile distilled water. Two hours later the […] were challenged with 20 microliters of a 10^4 spore/milliliter suspension of Penicillium digitatum. The grapefruit were incubated for 5 days at 24° C. before observations were taken.

[4] = tested on: Botrytis cinerea; assay: Botrytis cinerea infection of wounded apples, yeasts with or without CaCl2 (Example XII); conditions: CaCl2 2 grams/100 ml, no yeast, seven days, mean (standard error)
Description: Golden Delicious apples were wounded in accordance with the previous example. […] Two hours later the apples were challenged with 20 microliters of a suspension of 10^4 spores/milliliters of Botrytis cinerea. Seven days after inoculation percent infection was observed. […] Values in parentheses are standard errors of the mean.

[Cl-].[K+] [KCl]
Percent Infection, Salt Alone (No NRRL Y-18314) [1]: 100.0 (±0.0) %

[Cl-].[Cl-].[Mg+2] [MgCl2]
Percent Infection, Salt Alone (No NRRL Y-18314) [1]: 100.0 (±0.0) %

[Cl][Mn][Cl] [MnCl2]
Percent Infection, Salt Alone (No NRRL Y-18314) [1]: 100.0 (±0.0) %

O=S(=O)([O-])[O-].[Fe+2] [FeSO4]
Percent Infection, Salt Alone (No NRRL Y-18314) [1]: 87.5 (±12.5) %

[Ca+2].[Cl-].[Cl-] [CaCl2, calcium chloride]
Percent Infection, Salt Alone (No NRRL Y-18314) [1]: 95.0 (±5.0) %
infection reduction when used alone ([1]; used alone, 10 days): approximately 5%
Average Lesion Diameter ([2]; 10^3 spores/ml): 40.4 mm
Average Lesion Diameter ([2]; 10^4 spores/ml): 45.2 mm
Average Lesion Diameter ([2]; 10^5 spores/ml): 47.0 mm
Average Percent Fruit Rot ([3]; CaCl2 1% alone (yeast 0), series of Table XI): 39.0%
Average Percent Fruit Rot ([3]; CaCl2 1% alone (yeast 0), series of Table XII): 63.0%
Average Percent Fruit Rot ([3]; CaCl2 2% alone (yeast 0), series of Table XI): 22.8%
Average Percent Fruit Rot ([3]; CaCl2 2% alone (yeast 0), series of Table XII): 33.0%
Average Percent Infection [4]: 100.0 (±0.0) %

[Cl-].[Na+] [NaCl]
Percent Infection, Salt Alone (No NRRL Y-18314) [1]: 100.0 (±0.0) %
